Read-outs that look alike come from different tables or passages of the source.
Legend:
[1] = system: primary human total T-cells; experiment: T-cell activation, CD25 surface staining, Biological Example 2; type: cell-based; conditions: 48 hours, fold change over baseline; for fold induction at 0.3 µM: 0.3 μM inhibitor; for fold induction at 1 µM: 1 μM inhibitor; for fold induction at 3 µM: 3 μM inhibitor
[2] = system: primary human total T-cells; experiment: T-cell activation, IL-2 secretion, Biological Example 2; type: cell-based; conditions: 48 hours, fold change over baseline; for fold induction at 0.3 µM: 0.3 μM inhibitor; for fold induction at 1 µM: 1 μM inhibitor; for fold induction at 3 µM: 3 μM inhibitor
[3] = target: Cbl-b (Homo sapiens (Human), UniProt Q13191); experiment: Cbl-b displacement assay (Cbl-b inhibition assay), Biological Example 1; type: binding
Sequence of Cbl-b (Q13191 36-427): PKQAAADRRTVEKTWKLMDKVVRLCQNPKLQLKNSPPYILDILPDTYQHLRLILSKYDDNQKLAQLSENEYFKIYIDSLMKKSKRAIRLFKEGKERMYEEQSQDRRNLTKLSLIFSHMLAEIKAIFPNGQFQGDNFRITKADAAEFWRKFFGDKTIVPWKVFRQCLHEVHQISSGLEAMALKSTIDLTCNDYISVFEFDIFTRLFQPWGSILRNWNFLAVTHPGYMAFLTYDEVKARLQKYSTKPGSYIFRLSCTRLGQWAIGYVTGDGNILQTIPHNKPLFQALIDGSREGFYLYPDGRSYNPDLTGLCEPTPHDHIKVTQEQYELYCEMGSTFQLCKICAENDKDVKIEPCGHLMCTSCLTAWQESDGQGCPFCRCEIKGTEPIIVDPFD
How it was run: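 Probe displacement read as TR-FRET (520/620 nm) after 1 h with 2 nM streptavidin-terbium and 150 nM BODIPY FL-labelled inhibitor probe, about EC40. Before that, compound in 1% DMSO sat 1 h at room temperature with N-Avitag biotinylated Cbl-b 36–427, 0.5 nM (High) or 0.125 nM (Low), in pH 7.5 HEPES buffer.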

[4] = anti-CD3 and anti-CD28 co-stimulation
[5] = anti-CD3 and anti-CD28 co-stimulation, read-out: CD25 staining CD3/CD28 1 μM
[6] = anti-CD3 stimulation alone, read-out: CD25 staining CD3 1 μM
[7] = anti-CD3 and anti-CD28 co-stimulation, read-out: IL-2 secretion CD3/CD28 1 μM
[8] = anti-CD3 stimulation alone, read-out: IL-2 secretion CD3 1 μM
[9] = 0.125 nM Cbl-b final concentration (Low), read-out: Cbl-b activity IC50 (Low)
[10] = read-out: IC50 values in the Cbl-b inhibition assay of Biological Example 1

| Structure (SMILES) | fold induction at 0.3 µM [1, 4] | fold induction at 1 µM [1, 5] | fold induction at 1 µM [1, 6] | fold induction at 3 µM ([1]; anti-CD3 stimulation alone) | fold induction at 0.3 µM [2, 4] | fold induction at 1 µM [2, 7] | fold induction at 1 µM [2, 8] | fold induction at 3 µM ([2]; anti-CD3 stimulation alone) | IC50 [3, 9] | IC50 [3, 10] |
| --- | --- | --- | --- | --- | --- | --- | --- | --- | --- | --- |
| Cn1cnnc1C[C@]1(c2cccc(N3Cc4c(cc(CNC5CCC(F)(F)C5)nc4C4CC4)C3=O)c2)C[C@H](C#N)C1 (stereo partly drawn) [Compound 39, (1r,3r)-3-(3-(4-cyclopropyl-6-(((3,3-difluorocyclopentyl)amino)methyl)-1-oxo-1,3-dihydro-2H-pyrrolo[3,4-c]pyridin-2-yl)phenyl)-3-((4-methyl-4H-1,2,4-triazol-3-yl)methyl)cyclobutane-1-carbonitrile] | 1.24 to 1.39 | ≤ 1.24 | ≤ 1 | ≤ 1 | ≤ 15 | ≤ 15 | < 0.4 | < 0.4 | 1 to 2 nM | 1 to 2 nM |
| C[C@H]1CCCN(Cc2cc3c(c(C4CC4)n2)CN(c2cccc([C@]4(Cc5nncn5C)C[C@@H](C#N)C4)c2)C3=O)C1 [Compound 40, (1r,3r)-3-(3-(4-cyclopropyl-6-(((S)-3-methylpiperidin-1-yl)methyl)-1-oxo-1,3-dihydro-2H-pyrrolo[3,4-c]pyridin-2-yl)phenyl)-3-((4-methyl-4H-1,2,4-triazol-3-yl)methyl)cyclobutane-1-carbonitrile] | 1.24 to 1.39 | 1.24 to 1.39 | 1 to 1.15 | ≤ 1 | ≤ 15 | 15 to 20 | 0.4 to 0.85 | > 0.85 | 1 to 2 nM | 1 to 2 nM |
| Cn1cnnc1C[C@]1(c2cccc(N3Cc4c(cc(CN5CCCOC(CO)C5)cc4C(F)(F)F)C3=O)c2)C[C@H](C#N)C1 (stereo partly drawn) [Compound 41, (1r,3r)-3-(3-(6-((2-(hydroxymethyl)-1,4-oxazepan-4-yl)methyl)-1-oxo-4-(trifluoromethyl)isoindolin-2-yl)phenyl)-3-((4-methyl-4H-1,2,4-triazol-3-yl)methyl)cyclobutane-1-carbonitrile] | 1.24 to 1.39 | > 1.39 | ≤ 1 | 1 to 1.15 | ≤ 15 | ≤ 15 | < 0.4 | < 0.4 | 2 to 5 nM | – |
| C[C@@H]1CN(Cc2cc3c(c(C4CC4)n2)CN(c2cccc([C@]4(Cc5nncn5C)C[C@@H](C#N)C4)c2)C3=O)CCC1(F)F [Compound 42, (1R,3r)-3-(3-(4-cyclopropyl-6-(((R)-4,4-difluoro-3-methylpiperidin-1-yl)methyl)-1-oxo-1,3-dihydro-2H-pyrrolo[3,4-c]pyridin-2-yl)phenyl)-3-((4-methyl-4H-1,2,4-triazol-3-yl)methyl)cyclobutane-1-carbonitrile] | ≤ 1.24 | ≤ 1.24 | 1 to 1.15 | 1 to 1.15 | 15 to 20 | > 20 | > 0.85 | > 0.85 | 2 to 5 nM | – |
| CCC1COCCN(Cc2cc3c(c(C(F)(F)F)c2)CN(c2cccc([C@]4(Cc5nncn5C)C[C@@H](C#N)C4)c2)C3=O)C1 (stereo partly drawn) [Compound 43, (1r,3r)-3-(3-(6-((6-ethyl-1,4-oxazepan-4-yl)methyl)-1-oxo-4-(trifluoromethyl)isoindolin-2-yl)phenyl)-3-((4-methyl-4H-1,2,4-triazol-3-yl)methyl)cyclobutane-1-carbonitrile] | ≤ 1.24 | ≤ 1.24 | 1 to 1.15 | 1 to 1.15 | ≤ 15 | > 20 | 0.4 to 0.85 | 0.4 to 0.85 | 2 to 5 nM | – |
| Cn1cnnc1C[C@]1(c2cccc(N3Cc4c(cc(CN5CCOCC(CO)C5)cc4C(F)(F)F)C3=O)c2)C[C@H](C#N)C1 (stereo partly drawn) [Compound 44, (1r,3r)-3-(3-(6-((6-(hydroxymethyl)-1,4-oxazepan-4-yl)methyl)-1-oxo-4-(trifluoromethyl)isoindolin-2-yl)phenyl)-3-((4-methyl-4H-1,2,4-triazol-3-yl)methyl)cyclobutane-1-carbonitrile] | ≤ 1.24 | ≤ 1.24 | ≤ 1 | 1 to 1.15 | ≤ 15 | ≤ 15 | < 0.4 | < 0.4 | 1 to 2 nM | 1 to 2 nM |
| COCC1CCCCN(Cc2cc3c(c(C(F)(F)F)c2)CN(c2cccc([C@]4(Cc5nncn5C)C[C@@H](C#N)C4)c2)C3=O)C1 (stereo partly drawn) [Compound 45, (1r,3r)-3-(3-(6-((3-(methoxymethyl)azepan-1-yl)methyl)-1-oxo-4-(trifluoromethyl)isoindolin-2-yl)phenyl)-3-((4-methyl-4H-1,2,4-triazol-3-yl)methyl)cyclobutane-1-carbonitrile] | 1.24 to 1.39 | 1.24 to 1.39 | 1 to 1.15 | 1 to 1.15 | ≤ 15 | > 20 | 0.4 to 0.85 | > 0.85 | 2 to 5 nM | 2 to 5 nM |
| COCC1COCCN(Cc2cc3c(c(C(F)(F)F)c2)CN(c2cccc([C@]4(Cc5nncn5C)C[C@@H](C#N)C4)c2)C3=O)C1 (stereo partly drawn) [Compound 46, (1r,3r)-3-(3-(6-((6-(methoxymethyl)-1,4-oxazepan-4-yl)methyl)-1-oxo-4-(trifluoromethyl)isoindolin-2-yl)phenyl)-3-((4-methyl-4H-1,2,4-triazol-3-yl)methyl)cyclobutane-1-carbonitrile] | > 1.39 | > 1.39 | > 1.15 | > 1.15 | ≤ 15 | 15 to 20 | 0.4 to 0.85 | > 0.85 | 5 to 20 nM | 5 to 20 nM |
| Cn1cnnc1C[C@]1(c2cccc(N3Cc4c(cc(CN5CC6CCC(F)(F)C6C5)cc4C(F)(F)F)C3=O)c2)C[C@H](C#N)C1 (stereo partly drawn) [Compound 47, (1r,3r)-3-(3-(6-((4,4-difluorohexahydrocyclopenta[c]pyrrol-2(1H)-yl)methyl)-1-oxo-4-(trifluoromethyl)isoindolin-2-yl)phenyl)-3-((4-methyl-4H-1,2,4-triazol-3-yl)methyl)cyclobutane-1-carbonitrile] | > 1.39 | > 1.39 | > 1.15 | > 1.15 | > 20 | > 20 | > 0.85 | > 0.85 | 2 to 5 nM | 2 to 5 nM |
| Cn1cnnc1C[C@]1(c2cccc(N3Cc4c(cc(CN5CCCCC(CO)C5)cc4C(F)(F)F)C3=O)c2)C[C@H](C#N)C1 (stereo partly drawn) [Compound 48, (1r,3r)-3-(3-(6-((3-(hydroxymethyl)azepan-1-yl)methyl)-1-oxo-4-(trifluoromethyl)isoindolin-2-yl)phenyl)-3-((4-methyl-4H-1,2,4-triazol-3-yl)methyl)cyclobutane-1-carbonitrile] | > 1.39 | > 1.39 | > 1.15 | > 1.15 | ≤ 15 | > 20 | 0.4 to 0.85 | 0.4 to 0.85 | 1 to 2 nM | 1 to 2 nM |
| Cn1cnnc1C[C@]1(c2cccc(N3Cc4c(cc(CN5CCC[C@H](C(F)(F)F)C5)nc4C4CC4)C3=O)c2)C[C@H](C#N)C1 [Compound 49, (1r,3r)-3-(3-(4-cyclopropyl-1-oxo-6-(((S)-3-(trifluoromethyl)piperidin-1-yl)methyl)-1,3-dihydro-2H-pyrrolo[3,4-c]pyridin-2-yl)phenyl)-3-((4-methyl-4H-1,2,4-triazol-3-yl)methyl)cyclobutane-1-carbonitrile] | > 1.39 | > 1.39 | > 1.15 | > 1.15 | > 20 | > 20 | > 0.85 | > 0.85 | < 1 nM | < 1 nM |
| Cn1cnnc1C[C@]1(c2cccc(N3Cc4c(cc(CN5CCCCC(F)(F)C5)cc4C(F)(F)F)C3=O)c2)C[C@H](C#N)C1 [Compound 50, (1r,3r)-3-(3-(6-((3,3-difluoroazepan-1-yl)methyl)-1-oxo-4-(trifluoromethyl)isoindolin-2-yl)phenyl)-3-((4-methyl-4H-1,2,4-triazol-3-yl)methyl)cyclobutane-1-carbonitrile] | > 1.39 | > 1.39 | > 1.15 | > 1.15 | > 20 | > 20 | > 0.85 | 0.4 to 0.85 | 2 to 5 nM | 2 to 5 nM |

Reference: patent publication US11530229B2, “Cyano cyclobutyl compounds for CBL-B inhibition and uses thereof” (Nurix Therapeutics, Inc., priority 2019, dated 2022)
